Holding throughout (assay type): in vitro ADME
The nature of series [1]: In vitro microsomal clearance, human.
Series [2] in a line: In vitro microsomal clearance, rat (CD).
Series [3] in a line: In vitro microsomal clearance, dog (Beagle).
The nature of series [4]: In vitro microsomal clearance, rat (Wistar Han).

For the compound `O=C(Nc1cnn(Cc2c(F)cccc2C(F)(F)F)c1)c1c(F)cccc1F` [Example 6, 2,6-Difluoro-N-(1-{[2-fluoro-6-(trifluoromethyl)phenyl]methyl}-1H-pyrazol-4-yl)benzamide], the Clint is listed as 0.80 mL/min g liver in series [1], 1.67 mL/min g liver in series [2], 0.98 mL/min g liver in series [3] and 2.05 mL/min g liver in series [4].

In the case of `[2H]C([2H])(c1c(F)cccc1C(F)(F)F)n1cc(NC(=O)c2c(F)cccc2F)cn1` [Example 29, 2,6-Difluoro-N-(1-(2-fluoro-6-(trifluoromethyl)-d2-benzyl)-1H-pyrazol-4-yl)benzamide], the Clint is less than 0.5 mL/min g liver in series [1], 0.95 mL/min g liver in series [2], 0.80 mL/min g liver in series [3] and 1.16 mL/min g liver in series [4].
